Source: patent US20240308977A1, “PYRIDAZINE DERIVATIVES AS INHIBITORS OF NLRP3” (Hoffmann-La Roche Inc., priority 2021, published 2024)
pIC50: −log10 of the molar value.

How the values were obtained:
Format in all cases: cell-based
NLRP3 [1] = biological target: T1, NLRP3 (Homo sapiens, UniProt Q96P20); experiment: THP-1 cells pyroptosis assay; set-up: Seed THP-1 cells (25,000 cells/well) containing 10 μg/ml LPS; host or cells: THP-1 cells; conditions: LPS primed, nigericin 5 μM, resazurin read-out
Method: Therefore, it is anticipated that inhibitors of NLRP3 will block pyroptosis, as well as the release of pro-inflammatory cytokines (e.g. IL-1B) from the cell.
On the day of the experiment, THP-1 cells were harvested and resuspended into RPMI medium (without FBS). The cells were then counted and viability (>90%) checked by Trypan blue (Sigma #T8154). […] To this diluted cell solution was added LPS (Sigma #L4524) to give a 1 μg/ml Final Assay Concentration (FAC). 40 μl of the final preparation was aliquoted into each well of a 96-well plate. The plate thus prepared was used for compound screening.
The following method step-by-step assay was followed for compound screening. • 1. […] Incubate for 3 hours at 37° C., 5% CO2 • 4. Add 5 μl nigericin (Sigma #N7143) (FAC 5 μM) to all wells • 5. Incubate for 1 hr at 37° C., 5% CO2 • 6. At the end of the incubation period, spin plates at 300 xg for 3 mins and remove supernatant • 7. […] IC50 data is fitted to a non-linear regression equation (log inhibitor vs response-variable slope 4-parameters)

[2] = biological target: T2, hERG cardiac potassium channel (Homo sapiens, UniProt Q12809); experiment: hERG screening assay (automated patch clamp, CHO crelox hERG cells); conditions: whole-cell patch clamp at 35-37° C.
T2 construct: host or cells: CHO crelox hERG cell line (Chinese hamster)
Method: Ready-to-use frozen instant CHO-hERG cells were cryopreserved at Evotec (Germany) and used directly in the experiments.
The internal solution contains (in mM): KCl, 10; KF, 100; NaCl, 10; HEPES, 10; EGTA, 20; pH=7.0-7.4 with KOH, osmolarity 260-300 mOsm.
The effects of a compound on hERG K+-currents parameters will be evaluated at 2 concentrations in at least 4 cells.
K+ currents are measured with the patch-voltage-clamp technique in the whole-cell configuration at 35-37° C.
The amplitudes of IKhERG were recorded in each concentration of drug and they were compared to the vehicle control values (taken as 100%) to define fractional blocks. The concentration-response data were fitted with the following relationship:
Concentration-response curves were fitted by non-linear regression analysis using EworkBook suite (ID Business Solutions Ltd, UK). Data fit was done with the 4 Parameter Logistic Model (fit=(A+(B/(1+((x/C)^D)))), where A=0 and B=100).
In the drug development process of small molecules, one of the most frequent adverse side effects, leading to the failure of drugs, is the cardiac arrhythmias. Such failure is often related to the capacity of the drug to inhibit the human ether-à-go-go-related gene (hERG) cardiac potassium channel. Having no or low inhibition of the hERG cardiac potassium channel is therefore considered as beneficial.

NLRP3 [3] = biological target: T1, NLRP3; experiment: Human whole blood IL-1β release assay; set-up: Human whole blood in Li-heparin tubes was obtained from healthy donors; from tissue; host or cells: human whole blood from healthy donors; conditions: LPS 1 μg/ml, nigericin 10 μM, IL-1β by AlphaLisa
Method: Human whole blood in Li-heparin tubes was obtained from healthy donors from a volunteer donor panel. • 1. […] Incubate for 3 hours at 37° C., 5% CO2 • 4. Add 10 μl nigericin (Sigma #N7143) (10 μM FAC) to all wells • 5. Incubate for 1 hr at 37° C., 5% CO2 • 6. At the end of the incubation period, spin plates at 300 xg for 5 mins to pellet cells and remove 20 μl of supernatant and add to 96-well v-bottom plates for IL-1β analysis (note: these plates containing the supernatants can be stored at −80° C. to be analysed at a later date) • 7. IL-1β was measured according to the manufacturer protocol (Perkin Elmer-AlphaLisa IL-1 Kit AL220F-5000) • 8. IC50 data is fitted to a non-linear regression equation (log inhibitor vs response-variable slope 4-parameters)

T1 sequence (Q96P20 whole entry): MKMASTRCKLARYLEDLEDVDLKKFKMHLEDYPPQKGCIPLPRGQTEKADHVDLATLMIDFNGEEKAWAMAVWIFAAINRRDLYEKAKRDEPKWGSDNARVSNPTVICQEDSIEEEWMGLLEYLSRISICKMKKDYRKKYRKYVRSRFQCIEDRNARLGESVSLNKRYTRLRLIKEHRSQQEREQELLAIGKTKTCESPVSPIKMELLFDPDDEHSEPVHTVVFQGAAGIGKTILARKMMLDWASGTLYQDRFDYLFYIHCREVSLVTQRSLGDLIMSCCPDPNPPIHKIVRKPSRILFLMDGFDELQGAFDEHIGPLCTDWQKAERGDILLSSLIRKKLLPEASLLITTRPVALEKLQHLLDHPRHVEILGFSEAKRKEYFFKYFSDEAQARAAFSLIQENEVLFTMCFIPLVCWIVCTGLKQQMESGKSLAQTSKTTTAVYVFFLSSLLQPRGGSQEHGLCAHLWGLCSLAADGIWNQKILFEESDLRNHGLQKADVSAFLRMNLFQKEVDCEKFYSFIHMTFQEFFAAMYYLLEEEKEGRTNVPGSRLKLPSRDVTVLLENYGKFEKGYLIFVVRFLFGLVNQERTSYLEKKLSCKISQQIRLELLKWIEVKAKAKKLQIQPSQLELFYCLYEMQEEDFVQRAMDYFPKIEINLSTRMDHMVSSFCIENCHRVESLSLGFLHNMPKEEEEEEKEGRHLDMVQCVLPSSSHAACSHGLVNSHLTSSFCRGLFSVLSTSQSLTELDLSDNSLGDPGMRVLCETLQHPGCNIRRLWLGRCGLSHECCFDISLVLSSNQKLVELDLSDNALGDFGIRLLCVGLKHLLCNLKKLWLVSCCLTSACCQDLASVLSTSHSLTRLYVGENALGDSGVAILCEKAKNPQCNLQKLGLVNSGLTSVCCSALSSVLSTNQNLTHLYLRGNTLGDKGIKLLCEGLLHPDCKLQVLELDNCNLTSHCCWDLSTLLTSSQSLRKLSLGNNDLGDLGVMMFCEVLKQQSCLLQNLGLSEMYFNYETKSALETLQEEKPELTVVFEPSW
T2 sequence (Q12809 whole entry): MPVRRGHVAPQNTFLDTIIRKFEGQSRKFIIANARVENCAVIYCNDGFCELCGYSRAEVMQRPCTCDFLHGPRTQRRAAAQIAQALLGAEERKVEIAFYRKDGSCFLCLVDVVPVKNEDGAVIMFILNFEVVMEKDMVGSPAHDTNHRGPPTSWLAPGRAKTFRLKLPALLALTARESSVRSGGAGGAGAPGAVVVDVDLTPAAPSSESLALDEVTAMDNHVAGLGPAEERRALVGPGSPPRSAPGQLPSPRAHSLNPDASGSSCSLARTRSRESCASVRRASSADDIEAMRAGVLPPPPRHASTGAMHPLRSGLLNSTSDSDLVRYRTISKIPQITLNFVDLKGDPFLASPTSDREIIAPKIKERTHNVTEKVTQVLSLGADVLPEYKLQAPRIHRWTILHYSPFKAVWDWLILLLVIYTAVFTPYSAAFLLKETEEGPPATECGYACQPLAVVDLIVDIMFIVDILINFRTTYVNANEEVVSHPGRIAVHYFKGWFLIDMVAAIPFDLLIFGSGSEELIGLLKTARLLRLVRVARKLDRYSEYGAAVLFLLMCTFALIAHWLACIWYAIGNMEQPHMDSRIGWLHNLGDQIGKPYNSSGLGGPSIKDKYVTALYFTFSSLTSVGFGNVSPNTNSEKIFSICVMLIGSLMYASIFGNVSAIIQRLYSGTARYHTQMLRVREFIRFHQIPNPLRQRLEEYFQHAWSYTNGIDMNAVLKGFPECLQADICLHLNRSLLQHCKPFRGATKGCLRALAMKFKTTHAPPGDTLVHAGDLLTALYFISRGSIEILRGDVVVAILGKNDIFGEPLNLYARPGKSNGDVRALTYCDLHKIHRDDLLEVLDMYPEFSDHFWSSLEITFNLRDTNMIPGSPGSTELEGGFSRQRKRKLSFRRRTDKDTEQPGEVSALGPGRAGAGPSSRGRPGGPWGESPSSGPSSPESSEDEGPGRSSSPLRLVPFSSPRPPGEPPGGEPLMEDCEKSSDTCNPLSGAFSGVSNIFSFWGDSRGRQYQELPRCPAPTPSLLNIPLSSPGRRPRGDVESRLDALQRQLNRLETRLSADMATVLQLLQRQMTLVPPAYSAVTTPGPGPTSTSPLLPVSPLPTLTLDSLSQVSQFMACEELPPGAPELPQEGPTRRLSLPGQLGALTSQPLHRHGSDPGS

SMILES | pIC50 (NLRP3 [1]) | pIC50 [2] | pIC50 (NLRP3 [3])
Cc1cc(N[C@H]2C[C@@](C)(O)C2)nnc1-c1ccc(C#N)cc1O [Example 4, 3-Hydroxy-4-[6-[(3-hydroxy-3-methyl-cyclobutyl)amino]-4-methyl-pyridazin-3-yl]benzonitrile] | 6.08 |  | 
CCN1CCC[C@@H](Nc2cc(C)c(-c3ccc(C#N)cc3O)nn2)C1 [Example 1, 4-[6-[[(3R)-1-Ethyl-3-piperidyl]amino]-4-methyl-pyridazin-3-yl]-3-hydroxy-benzonitrile; formic acid] | 8.51 | < 4.70 | 8.49
CCN1CCC2CCN(c3ccc(-c4c(C)cc(C#N)cc4O)nn3)C2C1 (single isomer, unassigned) [Example 6B, 4-[6-[(3aR,7aS)-6-Ethyl-3,3a,4,5,7,7a-hexahydro-2H-pyrrolo[2,3-c]pyridin-1-yl]pyridazin-3-yl]-3-hydroxy-5-methyl-benzonitrile or 4-[6-[(3aS,7aR)-6-ethyl-3,3a,4,5,7,7a-hexahydro-2H-pyrrolo[2,3-c]pyridin-1-yl]pyridazin-3-yl]-3-hydroxy-5-methyl-benzonitrile] | 6.12 |  | 
CCN1CCC2CCN(c3ccc(-c4c(C)cc(C#N)cc4O)nn3)C2C1 (single isomer, unassigned) [Example 6A, 4-[6-[(3aS,7aR)-6-Ethyl-3,3a,4,5,7,7a-hexahydro-2H-pyrrolo[2,3-c]pyridin-1-yl]pyridazin-3-yl]-3-hydroxy-5-methyl-benzonitrile or 4-[6-[(3aR,7aS)-6-ethyl-3,3a,4,5,7,7a-hexahydro-2H-pyrrolo[2,3-c]pyridin-1-yl]pyridazin-3-yl]-3-hydroxy-5-methyl-benzonitrile] | 8.41 |  | 7.83
CCN1CCC[C@@H](Nc2cc(C(F)(F)F)c(-c3ccc(C#N)cc3O)nn2)C1 [Example 3, 4-[6-[[(3R)-1-Ethyl-3-piperidyl]amino]-4-(trifluoromethyl)pyridazin-3-yl]-3-hydroxy-benzonitrile] | 7.14 |  | 7.29
